Test results taken from the kinase profiling compilation of Christmann-Franck et al. (2016).

Legend:
Assay in all cases: radiometric filter-binding kinase assay, Kinase HotSpot
Conditions in all cases: compound 0.5 µM; ATP 10 µM
[1] = target: PRKCG (human) (UniProt P05129)
[2] = target: CAMKK1 (human) (UniProt Q8N5S9)
[3] = target: FGFR4 (human) (UniProt P22455)
[4] = target: MAP3K5 (human) (UniProt Q99683)
[5] = target: MAP4K2 (human) (UniProt Q12851)
[6] = target: PRKG2 (human) (UniProt Q13237)
[7] = target: PRKCD (human) (UniProt Q05655)
[8] = target: FGFR2 (human) (UniProt P21802)
[9] = target: PRKCH (human) (UniProt P24723)
[10] = target: TBK1 (human) (UniProt Q9UHD2)
[11] = target: MLTK (human) (UniProt Q9NYL2)
[12] = target: RET (human) (UniProt P07949)
[13] = target: PRKX (human) (UniProt P51817)
[14] = target: ALK (human) (UniProt Q9UM73)
[15] = target: FGFR1 (human) (UniProt P11362)
[16] = target: MAP3K2 (human) (UniProt Q9Y2U5)
[17] = target: FLT3 (human) (UniProt P36888)
[18] = target: SRC (human) (UniProt P12931)
[19] = target: PAK4 (human) (UniProt O96013)
[20] = target: EPHA1 (human) (UniProt P21709)
[21] = target: FGFR3 (human) (UniProt P22607)
[22] = target: ULK1 (human) (UniProt O75385)
[23] = target: CDK6 CCND1 (human) (UniProt Q00534+P24385)
[24] = target: FES (human) (UniProt P07332)
[25] = target: PLK1 (human) (UniProt P53350)
[26] = target: CDK2 CCNA2 (human) (UniProt P24941+P20248)
[27] = target: MAPK14 (human) (UniProt Q16539)
[28] = target: MAP3K7 TAB1 (human) (UniProt O43318+Q15750)
[29] = target: RPS6KB2 (human) (UniProt Q9UBS0)
[30] = target: CSNK1E (human) (UniProt P49674)
[31] = target: PIM3 (human) (UniProt Q86V86)
[32] = target: NTRK2 (human) (UniProt Q16620)
[33] = target: MAP3K8 (human) (UniProt P41279)
[34] = target: MAP3K3 (human) (UniProt Q99759)
[35] = target: EPHA8 (human) (UniProt P29322)
[36] = target: CLK3 (human) (UniProt P49761)
[37] = target: CDK4 CCND3 (human) (UniProt P30281+P11802)
[38] = target: RIPK2 (human) (UniProt O43353)
[39] = target: CDK6 CCND3 (human) (UniProt P30281+Q00534)
[40] = target: BTK (human) (UniProt Q06187)
[41] = target: SYK (human) (UniProt P43405)
[42] = target: MAPK13 (human) (UniProt O15264)

Sequence of CDK6 CCND3 (human) (P30281 whole entry, looked up): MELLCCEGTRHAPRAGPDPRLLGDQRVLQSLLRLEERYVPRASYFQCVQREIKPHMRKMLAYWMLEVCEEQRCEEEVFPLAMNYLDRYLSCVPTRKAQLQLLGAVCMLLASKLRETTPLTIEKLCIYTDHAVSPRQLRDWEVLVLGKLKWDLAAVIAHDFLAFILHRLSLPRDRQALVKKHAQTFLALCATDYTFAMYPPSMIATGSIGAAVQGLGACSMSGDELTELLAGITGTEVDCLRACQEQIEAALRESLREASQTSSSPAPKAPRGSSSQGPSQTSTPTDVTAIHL
Sequence of CDK6 CCND3 (human) (Q00534 whole entry, looked up): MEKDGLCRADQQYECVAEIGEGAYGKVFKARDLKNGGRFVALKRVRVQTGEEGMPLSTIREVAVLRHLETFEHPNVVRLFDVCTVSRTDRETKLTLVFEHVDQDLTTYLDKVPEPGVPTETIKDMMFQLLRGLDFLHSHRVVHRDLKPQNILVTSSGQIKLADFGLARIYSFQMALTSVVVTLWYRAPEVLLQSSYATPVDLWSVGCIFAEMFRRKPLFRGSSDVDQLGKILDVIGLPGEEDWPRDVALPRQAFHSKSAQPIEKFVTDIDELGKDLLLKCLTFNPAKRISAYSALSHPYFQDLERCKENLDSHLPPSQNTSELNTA
Sequence of ALK (human) (Q9UM73 whole entry, looked up): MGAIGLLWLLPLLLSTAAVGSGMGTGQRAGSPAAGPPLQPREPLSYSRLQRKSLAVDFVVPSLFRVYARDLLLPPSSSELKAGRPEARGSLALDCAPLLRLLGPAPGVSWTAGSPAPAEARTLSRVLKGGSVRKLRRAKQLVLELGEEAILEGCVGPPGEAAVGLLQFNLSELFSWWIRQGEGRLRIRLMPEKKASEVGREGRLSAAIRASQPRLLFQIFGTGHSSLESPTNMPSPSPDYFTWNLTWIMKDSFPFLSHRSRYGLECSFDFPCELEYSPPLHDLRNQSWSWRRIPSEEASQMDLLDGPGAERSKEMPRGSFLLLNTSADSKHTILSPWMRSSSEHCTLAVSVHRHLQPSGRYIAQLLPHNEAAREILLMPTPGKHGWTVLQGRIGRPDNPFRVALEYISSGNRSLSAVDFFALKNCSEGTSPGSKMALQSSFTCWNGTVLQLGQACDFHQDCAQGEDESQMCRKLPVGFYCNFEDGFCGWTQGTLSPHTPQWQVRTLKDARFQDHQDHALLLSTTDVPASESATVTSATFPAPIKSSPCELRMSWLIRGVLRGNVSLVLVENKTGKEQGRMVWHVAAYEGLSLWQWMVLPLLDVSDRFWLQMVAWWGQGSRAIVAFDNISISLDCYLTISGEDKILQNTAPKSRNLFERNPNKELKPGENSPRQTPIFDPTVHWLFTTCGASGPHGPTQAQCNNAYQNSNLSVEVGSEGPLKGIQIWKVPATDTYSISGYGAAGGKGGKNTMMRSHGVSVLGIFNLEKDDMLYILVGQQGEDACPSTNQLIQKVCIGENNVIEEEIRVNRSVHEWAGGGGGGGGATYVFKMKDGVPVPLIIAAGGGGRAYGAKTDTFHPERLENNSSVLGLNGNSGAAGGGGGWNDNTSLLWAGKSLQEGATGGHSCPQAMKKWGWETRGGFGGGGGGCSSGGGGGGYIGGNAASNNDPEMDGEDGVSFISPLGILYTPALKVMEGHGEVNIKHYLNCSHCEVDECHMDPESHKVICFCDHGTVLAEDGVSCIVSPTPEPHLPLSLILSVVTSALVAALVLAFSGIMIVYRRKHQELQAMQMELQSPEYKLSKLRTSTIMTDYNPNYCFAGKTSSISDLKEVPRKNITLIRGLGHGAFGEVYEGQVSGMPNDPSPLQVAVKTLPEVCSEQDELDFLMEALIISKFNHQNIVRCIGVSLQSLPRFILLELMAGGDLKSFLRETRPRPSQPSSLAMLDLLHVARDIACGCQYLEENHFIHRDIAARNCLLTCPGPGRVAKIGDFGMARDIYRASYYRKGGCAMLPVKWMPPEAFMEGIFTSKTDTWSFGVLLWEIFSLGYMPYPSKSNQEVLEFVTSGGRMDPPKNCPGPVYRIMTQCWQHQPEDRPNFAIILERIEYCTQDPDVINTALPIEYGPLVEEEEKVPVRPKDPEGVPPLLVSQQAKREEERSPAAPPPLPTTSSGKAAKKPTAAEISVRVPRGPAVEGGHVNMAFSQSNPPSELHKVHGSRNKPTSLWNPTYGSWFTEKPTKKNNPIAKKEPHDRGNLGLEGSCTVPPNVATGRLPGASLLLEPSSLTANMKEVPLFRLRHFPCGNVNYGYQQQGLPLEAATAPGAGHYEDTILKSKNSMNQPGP
Sequence of MAP3K2 (human) (Q9Y2U5 whole entry, looked up): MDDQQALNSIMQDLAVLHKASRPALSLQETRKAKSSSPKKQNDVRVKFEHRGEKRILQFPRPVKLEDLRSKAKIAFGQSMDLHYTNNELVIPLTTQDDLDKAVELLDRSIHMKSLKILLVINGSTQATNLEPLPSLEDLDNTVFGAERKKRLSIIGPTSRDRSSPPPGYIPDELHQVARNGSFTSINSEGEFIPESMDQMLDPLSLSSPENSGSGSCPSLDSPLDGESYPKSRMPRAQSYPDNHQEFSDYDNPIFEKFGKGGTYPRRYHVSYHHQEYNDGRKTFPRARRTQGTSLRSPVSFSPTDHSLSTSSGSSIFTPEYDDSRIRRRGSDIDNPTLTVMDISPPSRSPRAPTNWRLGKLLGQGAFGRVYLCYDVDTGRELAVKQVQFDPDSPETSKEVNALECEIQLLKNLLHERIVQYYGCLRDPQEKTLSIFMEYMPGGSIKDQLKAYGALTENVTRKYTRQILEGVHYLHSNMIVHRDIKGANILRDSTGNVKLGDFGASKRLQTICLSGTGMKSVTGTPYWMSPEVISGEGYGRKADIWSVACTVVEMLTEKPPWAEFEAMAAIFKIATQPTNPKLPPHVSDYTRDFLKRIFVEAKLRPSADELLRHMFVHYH
Sequence of CDK4 CCND3 (human) (P11802 whole entry, looked up): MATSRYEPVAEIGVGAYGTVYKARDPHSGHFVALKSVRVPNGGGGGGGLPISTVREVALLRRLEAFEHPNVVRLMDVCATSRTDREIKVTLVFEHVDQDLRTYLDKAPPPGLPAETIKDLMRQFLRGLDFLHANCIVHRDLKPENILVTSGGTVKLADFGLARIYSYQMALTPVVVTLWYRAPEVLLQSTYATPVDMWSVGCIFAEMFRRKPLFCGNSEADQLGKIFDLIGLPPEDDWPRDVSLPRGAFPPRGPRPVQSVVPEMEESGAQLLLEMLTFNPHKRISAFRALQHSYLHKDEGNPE
Sequence of CDK4 CCND3 (human) (P30281 whole entry, looked up): as the sequence (P30281 whole entry, looked up) above
Sequence of FGFR1 (human) (P11362 whole entry, looked up): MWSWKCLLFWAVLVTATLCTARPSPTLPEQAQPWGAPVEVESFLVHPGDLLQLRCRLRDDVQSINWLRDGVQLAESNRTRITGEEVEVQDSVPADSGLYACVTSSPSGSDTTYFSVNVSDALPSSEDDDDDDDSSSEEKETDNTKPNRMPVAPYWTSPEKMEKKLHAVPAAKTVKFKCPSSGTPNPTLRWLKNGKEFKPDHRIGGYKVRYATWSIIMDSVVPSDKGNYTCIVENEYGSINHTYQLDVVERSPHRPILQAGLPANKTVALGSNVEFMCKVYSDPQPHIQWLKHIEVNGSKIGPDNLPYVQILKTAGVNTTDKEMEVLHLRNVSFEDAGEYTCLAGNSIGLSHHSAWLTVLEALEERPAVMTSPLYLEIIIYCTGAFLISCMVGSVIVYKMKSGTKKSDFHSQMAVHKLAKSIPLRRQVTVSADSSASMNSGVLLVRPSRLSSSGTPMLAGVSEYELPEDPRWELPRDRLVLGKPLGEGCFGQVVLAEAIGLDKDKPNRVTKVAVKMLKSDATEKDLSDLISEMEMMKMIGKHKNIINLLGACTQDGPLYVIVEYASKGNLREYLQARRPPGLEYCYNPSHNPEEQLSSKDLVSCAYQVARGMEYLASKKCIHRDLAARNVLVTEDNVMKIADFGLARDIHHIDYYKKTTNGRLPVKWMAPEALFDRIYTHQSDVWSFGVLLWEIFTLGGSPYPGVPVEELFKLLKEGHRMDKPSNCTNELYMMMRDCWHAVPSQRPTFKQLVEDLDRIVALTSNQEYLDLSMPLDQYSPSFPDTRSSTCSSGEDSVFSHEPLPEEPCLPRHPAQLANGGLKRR
Sequence of EPHA1 (human) (P21709 whole entry, looked up): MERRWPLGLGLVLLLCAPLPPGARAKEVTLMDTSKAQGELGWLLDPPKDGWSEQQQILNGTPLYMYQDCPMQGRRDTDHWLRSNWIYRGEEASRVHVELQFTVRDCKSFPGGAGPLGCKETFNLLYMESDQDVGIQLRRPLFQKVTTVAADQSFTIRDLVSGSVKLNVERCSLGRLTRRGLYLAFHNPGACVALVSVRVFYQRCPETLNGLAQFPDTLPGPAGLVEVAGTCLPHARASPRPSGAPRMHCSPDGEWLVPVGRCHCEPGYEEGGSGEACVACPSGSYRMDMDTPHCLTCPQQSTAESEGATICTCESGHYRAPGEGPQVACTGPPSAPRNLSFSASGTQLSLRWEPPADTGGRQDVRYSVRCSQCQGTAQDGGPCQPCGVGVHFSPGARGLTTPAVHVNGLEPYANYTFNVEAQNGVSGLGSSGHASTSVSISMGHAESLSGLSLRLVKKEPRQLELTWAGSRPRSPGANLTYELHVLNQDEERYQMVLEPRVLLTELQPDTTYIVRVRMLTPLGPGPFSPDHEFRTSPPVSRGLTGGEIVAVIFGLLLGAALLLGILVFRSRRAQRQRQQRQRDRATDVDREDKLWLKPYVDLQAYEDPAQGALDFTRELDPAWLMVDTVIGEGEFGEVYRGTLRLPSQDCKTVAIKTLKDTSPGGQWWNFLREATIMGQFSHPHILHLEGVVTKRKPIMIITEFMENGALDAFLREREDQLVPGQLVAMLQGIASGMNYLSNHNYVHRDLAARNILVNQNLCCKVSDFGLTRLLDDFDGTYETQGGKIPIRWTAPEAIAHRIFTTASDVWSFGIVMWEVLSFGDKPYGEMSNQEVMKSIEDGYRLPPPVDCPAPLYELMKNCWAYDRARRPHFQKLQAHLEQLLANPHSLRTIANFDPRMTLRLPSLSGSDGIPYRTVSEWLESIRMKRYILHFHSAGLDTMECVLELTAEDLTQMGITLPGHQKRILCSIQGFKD

Row | SMILES | residual activity [1] [%] | residual activity [2] [%] | residual activity [3] [%] | residual activity [4] [%] | residual activity [5] [%] | residual activity [6] [%] | residual activity [7] [%] | residual activity [8] [%] | residual activity [9] [%] | residual activity [10] [%] | residual activity [12] [%] | residual activity [13] [%] | residual activity [14] [%] | residual activity [15] [%] | residual activity [16] [%] | residual activity [17] [%] | residual activity [18] [%] | residual activity [19] [%] | residual activity [20] [%] | residual activity [21] [%] | also measured
1 | C[C@@H]1CCN(C(=O)CC#N)C[C@@H]1N(C)c1ncnc2[nH]ccc12 | 90.6 | 101 | 94.3 | 97.8 | 102 | 106 | 75.3 | 91.7 | 100 | 92.5 | 92.4 | 110 | 107 | 101 | 123 | 77.9 | 99.8 | 99.2 | 98 | 95.3 | residual activity [11]: 98.2%; residual activity [22]: 83%; residual activity [23]: 96.5%; residual activity [24]: 104%; residual activity [25]: 101%; residual activity [26]: 89.5%; residual activity [27]: 93.4%; residual activity [28]: 87.5%; residual activity [29]: 100%; residual activity [30]: 101%; residual activity [31]: 96.5%; residual activity [32]: 97.1%; residual activity [33]: 93.5%; residual activity [34]: 115%; residual activity [35]: 109%; residual activity [36]: 106%; residual activity [37]: 99.9%; residual activity [38]: 113%; residual activity [39]: 110%
2 | COc1cc(Nc2c(C#N)cnc3cc(OCCCN4CCN(C)CC4)c(OC)cc23)c(Cl)cc1Cl | 93.6 | 84.8 | 94.1 | 95.7 | 3.16 | 109 | 40.3 | 58.1 | 102 | 65.7 | 18.9 | 110 | 66 | 64.4 | 23.5 | 30.3 | 6.05 | 95.8 | 97.7 | 82.6 | residual activity [40]: 5.69%; residual activity [41]: 21.1%; residual activity [22]: 79.1%; residual activity [42]: 91.2%; residual activity [23]: 99.4%; residual activity [25]: 93.8%; residual activity [26]: 91.1%; residual activity [27]: 88.6%; residual activity [28]: 28.3%; residual activity [29]: 107%; residual activity [30]: 11.4%; residual activity [31]: 97.7%; residual activity [32]: 69.2%; residual activity [33]: 101%; residual activity [34]: 11.8%; residual activity [35]: 10.5%; residual activity [36]: 94.9%; residual activity [37]: 103%; residual activity [38]: 111%; residual activity [39]: 122%
